Reference: US4281009A, “Hydantoin derivatives” (Nippon Zoki Pharmaceutical Co., Ltd., priority 1978, dated 1981)

Columns and labels:
[1] = system: normal mice and SART stress mice; assay: Analgesic effect, tail pressure method (Randall-Selitto's device); format: in vivo, mice (ddY-strain male); details: Mus musculus; for change in vivo at 100 mg/kg / change in vivo at 200 mg/kg: ip; for change in vivo at 200 mg/kg: intraperitoneal 200 mg/kg; for change in vivo at 500 mg/kg: po, peroral 500 mg/kg
Procedure: 5.1 Tail pressure method:
Randall-Selitto's device for determining analgesic effect by pressure stimulation was used. […]. The compounds of the present invention or other comparative drugs were given thereto and analgesic effect was determined. The effect was judged by measuring pressure applied 60 minutes after the intraperitoneal administration of the compounds of the present invention. The pressure thus measured was divided by a pressure before the administration. The value thus obtained was compared with that of a control group (to which 10 ml./Kg of 0.5% sodium salt of carboxymethylcellulose or 0.5% Tween 80 was given). When the compounds of the present invention were given perorally and other comparative drugs were given, an average of the pressure at 30, 60, 90 and 120 minutes after the administration was employed for evaluating the effect.

dd-strain male mice [2] = assay: Antiulcerogenic effect on Takagi's restraint-plus-water-immersing ulcer; format: in vivo
Procedure: 6.1 Antiulcerogenic effect on Takagi's restraint-plus-water-immersing ulcer: Groups each comprising 8-26 dd-strain male mice were used. The tests were carried out according to a method of Takagi, et al. [Chem. Pharm. Bull.; 12, 465 (1964)]. Sum of length of diseased parts in the glandular stomach was measured and it was compared with that of control group. The compounds of the present invention or DPH was given intraperitoneally immediately before the restraint and immersion in water.

Wistar-strain male rats = assay: Antiulcerogenic effect on Shay's ulcer (operative ulcer); format: in vivo; details: 10 times
Procedure: 6.2. Antiulcerogenic effect on Shay's ulcer (operative ulcer):
Tests were carried out by using groups of rats each comprising 5-10 Wistar-strain male rats according to Shay method [Shay Harry; Gastroenterology,; 5, 43 (1945)]. Ulcers in the anterior stomach were classified on the following basis:
2. 1-5 small ulcers (diameter of less than 3 mm)
3. 6 or more small ulcers or one big ulcer (diameter of more than 3 mm)
4. two or more big ulcers

[3] = system: normal mice and SART stress mice; assay: Analgesic effect, acetic acid writhing method; format: in vivo; details: Mus musculus, sc, 100 mg/Kg subcutaneously
Procedure: 5.2. Acetic acid writhing method: 0.1 ml./10 g of isotonic sodium chloride solution containing 0.7% acetic acid was given intraperitoneally to groups of mice each comprising 5 normal mice and 5 SART stress mice to which SART stress had been applied for 8 days. Writhing syndromes number appeared for 15 minutes after the administration was measured. The effect was evaluated by giving 100 mg/Kg of the compounds of the present invention or DPH subcutaneously and comparing the writhing syndromes number of the mice with that of control mice.

[4] = Acute toxicity test (LD50, Litchfield-Wilcoxon), rats; details: rat, in vivo, ip, intraperitoneal
Procedure: (§1) Toxicity tests were carried out by intraperitoneal administration of the compound of the present invention to groups each comprising 10 ICR-strain mice and SD-strain rats. LD50 was calculated by the Litchfield-Wilcoxon method based on the number of death 72 hours after the administration.

dd-strain male mice [5] = assay: Inhibitory effect on exploratory movements; format: in vivo; details: 150 mg/kg intraperitoneal, after 60 minutes
Procedure: 4.2. Inhibitory effect on exploratory movements:
Groups each comprising 16-35 dd-strain male mice were used. The compounds of the present invention were given intraperitoneally. After 60 minutes, exploratory movements for 15 minutes were measured with an exploratory movement recorder by a method of Tokyo Kyoiku University.

[6] = system: normal mice and SART stress mice; assay: Analgesic effect, D'Amour-Smith method; format: in vivo, mice (ddY-strain male); details: Mus musculus; for responders at 200 mg/kg: ip, intraperitoneal 200 mg/kg; for responders at 500 mg/kg: po, peroral 500 mg/kg
Procedure: 5.3. D'Amour-Smith method:
Groups each comprising 10 ddY-strain male normal mice and SART stress mice to which SART stress had been applied for 4 days were used. The root of the tail of the mouse to which black ink was applied was irradiated with infrared rays for up to 15 seconds. Time required till escape response was observed was measured. The effect was shown by the ratio of the mice in which an average value of the response time at 30, 60, 90 and 120 minutes after the administration of the compounds of the present invention or other comparative drugs was prolonged to at least 2 times as long as the time before the administration.

ddY-strain male mice = assay: Effect of prolongation of sleeping time (hexobarbital); format: in vivo; details: for change in vivo at 100 mg/kg: 100 mg/kg intraperitoneal
Procedure: 7. Effect of prolongation of sleeping time:
Groups of mice each comprising 10 ddY-strain male mice were used. Sodium salt of hexobarbital was given intraperitoneally. Thereafter, the period of time in which righting reflex disappeared was measured. The effect was evaluated on the basis of prolongation of time of disappearance of righting reflex by the intraperitoneal administration of the compounds of the present invention as compared with control mice.

dd-strain male mice [7] = assay: Inhibitory effect on spontaneous motor activities (Animex method); format: in vivo; details: after 60 minutes
Procedure: 4.1 Inhibitory effect on spontaneous motor activities:
Groups each comprising 8-16 dd-strain male mice were used. The compounds of the present invention were given intraperitoneally. After 60 minutes, spontaneous motor activities for 15 minutes were measured by the Animex method.

dd-strain male mice [8] = assay: Inhibitory effect on Tremorine-induced tremor; format: in vivo; details: tremorine 10 mg/Kg
Procedure: 9. Inhibitory effect on Tremorine-induced tremor:
Groups of mice each comprising 10-40 dd-strain male mice were used. Effect of the compounds of the present invention on tremor caused by tremorine was examined. The compounds of the present invention or DPH was given intraperitoneally. 45 minutes thereafter, 10 mg/Kg of tremorine was given intraperitoneally for inducing the tremor.

SART stress mice = assay: Inhibitory effects on increase of heart rate and elongation of QRS-time in SART stress mice; format: in vivo, mice (dd-strain male); details: 100 mg/kg/day, 9th day, Average ± S.D.
Procedure: SART stress animals used in the tests described below were raised according to a method of Kita, et al. [Folia Pharmacol. Japan.: 71, 195-210 (1975)].
2. Inhibitory effects on increase of heart rate and elongation of QRS-time in stress animals:
Groups of mice each comprising 11 or 12 dd-strain male mice were divided into three groups in the same manner as above and heart rate and QRS-time were determined on the 9th day after initiation of the tests.

[9] = Acute toxicity test (LD50, Litchfield-Wilcoxon), mice; details: mouse, in vivo, ip, intraperitoneal
Procedure: as §1

[10] = system: normal rats and SART stress rats; assay: Analgesic effect, pain induced by Bradykinin; format: in vivo, rats (SD-strain male)
Procedure: 5.4 Method of measuring a pain induced by Bradykinin:
Groups each comprising 4-8 SD-strain male normal rats and SART stress rats to which SART stress had been applied for 4 days were used. The tests were carried out according to the method of Deffenu et al. [Deffenu, G., Pegrassi, L., & Fumachi. B.; J. Pharm. Pharmacol.; 18, 135 (1966)] and Blane method [Blane, G. F.; J. Pharm. Pharmacol.; 19, 367 (1967)]. The effect judged was shown by ratio of the rats in which the effect was recognized according to the method of Abe, et al. [Abe, Kaneko & Takagi; Folia Pharmacol. Japon.; 67, 9-14 (1971)].

[11] = system: spontaneously hypertensive rats (SHR); assay: Antihypertensive effect in spontaneously hypertensive rats; format: in vivo; details: 150 mg/Kg intraperitoneal, 60 minutes
Procedure: 8. Antihypertensive effect: Groups of rats each comprising 6-9 spontaneously hypertensive rats (SHR) were used. The compounds of the present invention or DPH was given intraperitoneally. The rate of antihypertension 60 minutes after the administration was determined.

For `O=C1NC(=O)C(c2ccc(O)cc2)(c2cccs2)N1` (centres unmarked) [Compound 1, 5-(4-Hydroxyphenyl)-5-(2-thienyl)hydantoin], the change in vivo at 100 mg/kg ([1]; 1 h, SART stress mice, intraperitoneal 100 mg/kg, 60 minutes) was 82.3%, the change in vivo at 100 mg/kg ([1]; 1 h, normal mice, intraperitoneal 100 mg/kg, 60 minutes) was 26.9% and the inhibition in vivo at 150 mg/kg (dd-strain male mice [2]; Mus musculus, ip, 150 mg/kg intraperitoneal) was 30.6%. The “Antiulcerogenic effect on Shay's ulcer (operative ulcer)” value (shortened to “Antiulcerogenic effect on Shay's ulcer”) (Wistar-strain male rats; 100 mg/kg intraperitoneal) was 14.6%, the “Antiulcerogenic effect on Shay's ulcer” value (Wistar-strain male rats; 150 mg/kg intraperitoneal) was 26.5% and the inhibition in vivo at 100 mg/kg ([3]; SART stress mice) was 20.9%. It also gave an inhibition in vivo at 100 mg/kg ([3]; normal mice) of 2.4%, an LD50 at 72 h ([4]; female) greater than 3000 mg/kg and an LD50 at 72 h ([4]; male) greater than 3000 mg/kg. The “Inhibitory effect on exploratory movements” value (dd-strain male mice [5]) was 33.2%, the responders at 200 mg/kg ([6]; SART stress mice) was 30% and the responders at 200 mg/kg ([6]; normal mice) was 20%. The change in vivo at 100 mg/kg (ddY-strain male mice; Mus musculus, ip) was 36.9%, the “Inhibitory effect on spontaneous motor activities” value (dd-strain male mice [7]; 50 mg/kg intraperitoneal) was 22.4% and the “Inhibitory effect on spontaneous motor activities” value (dd-strain male mice [7]; 150 mg/kg intraperitoneal) was 30.7%. For the same compound, the “Inhibitory effect on Tremorine-induced tremor” value (dd-strain male mice [8]; 150 mg/kg intraperitoneal) was 33%, the Heart rate (SART stress mice) was 741 ± 39 min⁻¹ and the QRS-time (SART stress mice) was 13.9 ± 0.8 1/1000 sec. It also gave an LD50 at 72 h ([9]; female) of 2000 to 3000 mg/kg and an LD50 at 72 h ([9]; male) greater than 3000 mg/kg.

`CCC1(c2ccc(O)cc2)NC(=O)NC1=O` (centres unmarked) [Compound 24, 5-Ethyl-5-(4-hydroxyphenyl)hydantoin] showed a change in vivo at 200 mg/kg ([1]; 1 h, SART stress mice, 60 minutes) of 31.2%, a change in vivo at 200 mg/kg ([1]; 1 h, normal mice, 60 minutes) of 20.4% and an inhibition in vivo at 75 mg/kg (dd-strain male mice [2]; Mus musculus, ip, 75 mg/kg intraperitoneal) of 11.9%. For the same compound, the inhibition in vivo at 125 mg/kg (dd-strain male mice [2]; Mus musculus, ip, 125 mg/kg intraperitoneal) was 27.5%, the “Antiulcerogenic effect on Shay's ulcer” value (Wistar-strain male rats; 50 mg/kg intraperitoneal) was 17.5% and the “Antiulcerogenic effect on Shay's ulcer” value (Wistar-strain male rats; 100 mg/kg intraperitoneal) was 32.2%. The LD50 at 72 h ([4]; female) was greater than 5000 mg/kg, the LD50 at 72 h ([4]; male) was greater than 5000 mg/kg and the Analgesic effect ([10]; SART stress rats, intraperitoneal 100 mg/kg) was 50%. For the same compound, the Analgesic effect ([10]; normal rats, intraperitoneal 100 mg/kg) was 20%, the “Effect of prolongation of sleeping time” value (ddY-strain male mice; 50 mg/kg intraperitoneal) was 42.1% and the change in vivo at 100 mg/kg (ddY-strain male mice; Mus musculus, ip) was 54.4%. The change in vivo at 300 mg/kg (ddY-strain male mice; Mus musculus, ip, 300 mg/kg intraperitoneal) was 84.4%, the “Inhibitory effect on Tremorine-induced tremor” value (dd-strain male mice [8]; 150 mg/kg intraperitoneal) was 40% and the Heart rate (SART stress mice) was 729 ± 58 min⁻¹. The QRS-time (SART stress mice) was 13.3 ± 0.9 1/1000 sec, the LD50 at 72 h ([9]; female) was greater than 5000 mg/kg and the LD50 at 72 h ([9]; male) was greater than 5000 mg/kg.

For `O=C1NC(=O)C(c2ccccc2)(c2ccccc2)N1` [DPH, 5,5-diphenylhydantoin, reference compound], the change in vivo at 100 mg/kg ([1]; SART stress mice, comparative drug intraperitoneal 100 mg/kg, average of 30, 60, 90 and 120 minutes) was 18.4%, the change in vivo at 100 mg/kg ([1]; normal mice, comparative drug intraperitoneal 100 mg/kg, average of 30, 60, 90 and 120 minutes) was -33.1% and the change in vivo at 500 mg/kg ([1]; SART stress mice, average of 30, 60, 90 and 120 minutes) was 17.9%. For the same compound, the change in vivo at 500 mg/kg ([1]; normal mice, average of 30, 60, 90 and 120 minutes) was 5.9%, the Rate of antihypertension [11] was 6.6% and the “Antiulcerogenic effect on Takagi's restraint-plus-water-immersing ulcer” value (dd-strain male mice [2]; 50 mg/kg intraperitoneal) was 7.8%. It also gave an inhibition in vivo at 100 mg/kg (dd-strain male mice [2]; Mus musculus, ip, 100 mg/kg intraperitoneal) of 9%, an inhibition in vivo at 100 mg/kg ([3]; SART stress mice) of -6% and an inhibition in vivo at 100 mg/kg ([3]; normal mice) of -16.3%. The responders at 500 mg/kg ([6]; SART stress mice) was 0%, the responders at 500 mg/kg ([6]; normal mice) was 0% and the Analgesic effect ([10]; SART stress rats, peroral 500 mg/kg) was 0%. For the same compound, the Analgesic effect ([10]; normal rats, peroral 500 mg/kg) was 0%, the “Inhibitory effect on Tremorine-induced tremor” value (dd-strain male mice [8]; 50 mg/kg intraperitoneal) was 0% and the “Inhibitory effect on Tremorine-induced tremor” value (dd-strain male mice [8]; 100 mg/kg intraperitoneal) was 0%.
